From ChEMBL document CHEMBL3351315, “Tanzawaic acid derivatives from a marine isolate of Penicillium sp. (SF-6013) with anti-inflammatory and PTP1B inhibitory activities” (Bioorg Med Chem Lett, 2014) come the findings set out here.

For series [1], the target named is T1, Tyrosine-protein phosphatase non-receptor type 1 (Homo sapiens) (UniProt P18031).
T1 sequence (whole entry): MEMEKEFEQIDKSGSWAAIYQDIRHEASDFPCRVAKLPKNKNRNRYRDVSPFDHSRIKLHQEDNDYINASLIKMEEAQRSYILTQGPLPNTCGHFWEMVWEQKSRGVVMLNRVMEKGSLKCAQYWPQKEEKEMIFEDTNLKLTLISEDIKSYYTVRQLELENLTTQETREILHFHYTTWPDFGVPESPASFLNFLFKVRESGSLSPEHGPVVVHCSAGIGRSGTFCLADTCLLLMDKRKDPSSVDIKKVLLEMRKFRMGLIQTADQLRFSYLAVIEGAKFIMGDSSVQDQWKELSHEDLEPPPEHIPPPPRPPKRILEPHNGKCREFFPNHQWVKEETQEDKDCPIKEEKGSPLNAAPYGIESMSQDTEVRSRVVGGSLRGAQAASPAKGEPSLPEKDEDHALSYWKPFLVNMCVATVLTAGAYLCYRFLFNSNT
Description: Inhibition of human recombinant PTP1B assessed as reduction in pNPP substrate hydrolysis at 30 uM incubated for 30 mins.

For series [2], the system named is BV-2. As to the kind of experiment: Inhibition of LPS-induced nitric oxide production in mouse BV2 cells pre-treated for 3 hrs before LPS stimulation by ELISA based Griess assay. The series is classed as functional, cell-based. Background: In an ELISA, binding on a coated surface is turned into a signal by an enzyme label.
The target of series [3] is T2, Tyrosine-protein phosphatase non-receptor type 1 (Homo sapiens, UniProt P18031).
T2 sequence (P18031 whole entry): T1 sequence (whole entry)
As to the kind of experiment: Inhibition of human recombinant PTP1B assessed as reduction in pNPP substrate hydrolysis incubated for 30 mins.

In series [4] the test system is RAW264.7. Description: Inhibition of LPS-induced nitric oxide production in mouse RAW264.7 cells pre-treated for 3 hrs before LPS stimulation by ELISA based Griess assay. Type of series: functional, cell-based.
Series [5] deals with RAW264.7. As to the kind of experiment: Inhibition of LPS-induced iNOS protein expression in mouse RAW264.7 cells pre-treated for 1 hr before LPS stimulation for 18 hrs by Western blot method. The series is classed as functional, cell-based.
Series [6] has as its system RAW264.7. As to the kind of experiment: Inhibition of LPS-induced COX2 protein expression in mouse RAW264.7 cells pre-treated for 1 hr before LPS stimulation for 18 hrs by Western blot method. Type of series: functional, cell-based. (In general: A western blot detects proteins with antibodies after separation by electrophoresis.)
For series [7], the system named is BV-2. As to the kind of experiment: Inhibition of LPS-induced iNOS protein expression in mouse BV2 cells pre-treated for 1 hr before LPS stimulation for 18 hrs by Western blot method. The series is classed as functional, cell-based.
In series [8] the test system is BV-2. Description: Inhibition of LPS-induced COX2 protein expression in mouse BV2 cells pre-treated for 1 hr before LPS stimulation for 18 hrs by Western blot method. Type of series: functional, cell-based.
Series [9] is described as follows: Effect on beta-actin protein expression in LPS-induced mouse BV2 cells pre-treated for 1 hr before LPS stimulation for 18 hrs by Western blot method. To be noted: bv-2, 18 h. The series is classed as ADME, cell-based.
In series [10] the test system is RAW264.7. Description: Effect on beta-actin protein expression in LPS-induced mouse RAW264.7 cells pre-treated for 1 hr before LPS stimulation for 18 hrs by Western blot method. Type of series: ADME, cell-based. The note with it: raw264.7, 18 h.
Series [11] relates to BV-2. As to the kind of experiment: Inhibition of LPS-induced PGE2 production in mouse BV2 cells pre-treated for 3 hrs before LPS stimulation for 24 hrs by ELISA. Type of series: functional, cell-based.
The subject of series [12] is RAW264.7. As to the kind of experiment: Inhibition of LPS-induced PGE2 production in mouse RAW264.7 cells pre-treated for 3 hrs before LPS stimulation for 24 hrs by ELISA. Type of series: functional, cell-based.
In series [13] the test system is BV-2. As to the kind of experiment: Inhibition of LPS-induced IL-1beta production in mouse BV2 cells pre-treated for 3 hrs before LPS stimulation for 24 hrs by ELISA. The series is classed as functional, cell-based.

Calls of active or inactive are those of the source. No cut-off for these calls is given here.

As a reminder, the inhibition is the percentage by which the read-out fell short of the control. As for `Cc1ccc2c(c1/C=C/C=C/C(=O)O)[C@H](C)C[C@@](C)(O)C2`, the inhibition in [1] is 24.1%.
Broadly, the IC50 is the concentration at which inhibition is half-maximal. Regarding `Cc1ccc2c(c1/C=C\C=C\C(=O)O)[C@H](C)C[C@@](C)(O)C2`, the IC50 in [2] came out at 37.8 µM. In addition, in series [1], the inhibition was 27.3%.
For `C[C@H]1C[C@@H](C)[C@@H]2[C@@H](/C=C/C=C/C(=O)O)[C@@H](C)C=C[C@H]2C1`, the IC50 in series [2] was found to be 42.5 µM; in series [3], 8.2 µM.
Consider `Cc1ccc2c(c1/C=C/C=C/C(=O)O)[C@H](C)C[C@H](C)C2`, for which the IC50 came to 27 µM in series [4]; 7.1 µM in [2]; 17.5 µM in [11]; 15.7 µM in series [12]; 21.9 µM in [13]; 8.2 µM in series [3]. In addition, the inhibition result in series [5], in series [6], in series [7] and in [8] was “Dose-dependent effect” in each case. Further, the Activity entry in series [9] and in series [10] was “Non-toxic” in each case.
In the case of `C[C@@H]1C[C@@](C)(O)C[C@@H]2C=C[C@H](C)[C@H](/C=C/C=C/C(=O)O)[C@@H]12`, in [1], the inhibition result is “inactive”.
